According to ChEMBL document CHEMBL2021894, “The Discovery of VX-745: A Novel and Selective p38α Kinase Inhibitor” (ACS Med Chem Lett, 2011):
Active and inactive are the calls of the source. No cut-off for these calls is given here.

Key:
[1] = target: Dual specificity mitogen-activated protein kinase kinase 1 (Homo sapiens) (UniProt Q02750); experiment: Inhibition of Mek1 at 2 uM
[2] = Plasma protein binding in rat; type: ADME, cell-free; details: read-out: PPB (converted)
[3] = target: Tyrosine-protein kinase Lck (Homo sapiens) (UniProt P06239); experiment: Inhibition of LCK at 2 uM
[4] = AUC in BALB/c mouse at 2 mg/kg, iv; type: ADME, organism-based; parameters: dose 2 mg/kg, route intravenous; details: plasma
[5] = target: Dual specificity mitogen-activated protein kinase kinase 7 (Homo sapiens) (UniProt O14733); details: 2 uM
Description: Inhibition of MKK7 at 2 uM

Cytochrome P450 1A2 = Cytochrome P450 1A2 (Homo sapiens, UniProt P05177); experiment: Inhibition of human CYP1A2; type: ADME
[6] = target: Serine/threonine-protein kinase 3 (Homo sapiens) (UniProt Q13188); details: 2 uM
Description: Inhibition of Mst2 at 2 uM

Cytochrome P450 2C9 = Cytochrome P450 2C9 (Homo sapiens, UniProt P11712); experiment: Inhibition of human CYP2C9; type: ADME
[7] = target: Angiopoietin-1 receptor (Homo sapiens) (UniProt Q02763); details: 2 uM
Description: Inhibition of Tie2 at 2 uM

[8] = target: Mitogen-activated protein kinase 8 (Homo sapiens) (UniProt P45983); experiment: Inhibition of JNK1 at 2 uM
[9] = target: Serine/threonine-protein kinase N2 (Homo sapiens) (UniProt Q16513); experiment: Inhibition of PRK2 at 2 uM
[10] = target: Fibroblast growth factor receptor 3 (Homo sapiens) (UniProt P22607); experiment: Inhibition of FGFR3 at 2 uM
[11] = target: Inhibitor of nuclear factor kappa-B kinase subunit alpha (Homo sapiens) (UniProt O15111); details: 2 uM
Description: Inhibition of IKKa at 2 uM

[12] = Half life in BALB/c mouse at 2 mg/kg, iv; type: ADME, organism-based; parameters: dose 2 mg/kg, route intravenous; details: in vivo
[13] = AUC in BALB/c mouse at 40 mg/kg, po; type: ADME, organism-based; parameters: dose 40 mg/kg, route oral; details: plasma
[14] = target: Protein kinase C theta type (Homo sapiens) (UniProt Q04759); details: 2 uM
Description: Inhibition of PKCtheta at 2 uM

[15] = target: Protein kinase C iota type (Homo sapiens) (UniProt P41743); details: 2 uM
Description: Inhibition of PKCiota at 2 uM

[16] = Half life in beagle dog at 13.8 mg/kg, iv; type: ADME, organism-based, Canis lupus familiaris; parameters: dose 13.8 mg/kg, route intravenous; details: in vivo
[17] = target: Serine/threonine-protein kinase Chk1 (Homo sapiens) (UniProt O14757); details: 2 uM
Description: Inhibition of CHK1 at 2 uM

Mus musculus [18] = experiment: Antiarthritic activity in complete Freund's adjuvant-immunized DBA/1J mouse assessed as inhibition of type 2 collagen-induced paw inflammation at 5 mg/kg, po bid measured on day 20; type: functional; details: 480 h
[19] = target: Inhibitor of nuclear factor kappa-B kinase subunit beta (Homo sapiens) (UniProt O14920); details: 2 uM
Description: Inhibition of IKKb at 2 uM

[20] = target: Mitogen-activated protein kinase 3 (Homo sapiens) (UniProt P27361); details: 2 uM
Description: Inhibition of ERK1 at 2 uM

[21] = Half life in Sprague-Dawley rat at 4.8 mg/kg, iv; type: ADME, organism-based; parameters: dose 4.8 mg/kg, route intravenous; details: in vivo
Canis familiaris [22] = experiment: AUC in beagle dog at 13.8 mg/kg, iv; type: ADME, organism-based, Canis lupus familiaris, Plasma; parameters: dose 13.8 mg/kg, route intravenous; details: in vivo
[23] = Half life in Sprague-Dawley rat at 43 mg/kg, po; type: ADME, organism-based; parameters: dose 43 mg/kg, route oral; details: in vivo
[24] = target: Cyclin-dependent kinase 5 (Homo sapiens) (UniProt Q00535); details: 2 uM
Description: Inhibition of CDK5 at 2 uM

[25] = Cmax in beagle dog at 33 mg/kg, po; type: ADME, organism-based, Canis lupus familiaris; parameters: dose 33 mg/kg, route oral; details: in vivo
Mus musculus [26] = experiment: Antiarthritic activity in complete Freund's adjuvant-immunized DBA/1J mouse assessed as inhibition of type 2 collagen-induced paw inflammation at […], po bid measured on day 20; type: functional; details: 480 h, dose 2.5 mg/kg
Canis familiaris [27] = experiment: Oral bioavailability in beagle dog at 33 mg/kg; type: ADME, organism-based, Canis lupus familiaris; details: in vivo
[28] = target: Tyrosine-protein kinase Fes/Fps (Homo sapiens) (UniProt P07332); details: 2 uM
Description: Inhibition of FES at 2 uM

[29] = Oral bioavailability in BALB/c mouse at 40 mg/kg; type: ADME, organism-based; details: in vivo
[30] = target: Insulin receptor (Homo sapiens) (UniProt P06213); details: 2 uM
Description: Inhibition of IRTK at 2 uM

[31] = Plasma protein binding in dog; type: ADME, cell-free, Canis lupus familiaris; details: read-out: PPB (converted)
[32] = Half life in beagle dog at 33 mg/kg, po; type: ADME, organism-based, Canis lupus familiaris; parameters: dose 33 mg/kg, route oral; details: in vivo
[33] = target: Ribosomal protein S6 kinase alpha-2 (Homo sapiens) (UniProt Q15349); details: 2 uM
Description: Inhibition of Rsk3 at 2 uM

[34] = Clearance in Sprague-Dawley rat at 4.8 mg/kg, iv; type: ADME, organism-based; parameters: dose 4.8 mg/kg, route intravenous; details: in vivo
[35] = Oral bioavailability in Sprague-Dawley rat at 43 mg/kg; type: ADME, organism-based; details: in vivo
[36] = AUC in Sprague-Dawley rat at 43 mg/kg, po; type: ADME, organism-based; parameters: dose 43 mg/kg, route oral; details: plasma
[37] = target: Serine/threonine-protein kinase Sgk1 (Homo sapiens) (UniProt O00141); experiment: Inhibition of SGK at 2 uM
[38] = target: Casein kinase I isoform alpha (Homo sapiens) (UniProt P48729); experiment: Inhibition of CK1 at 2 uM
[39] = AUC in Sprague-Dawley rat at 4.8 mg/kg, iv; type: ADME, organism-based; parameters: dose 4.8 mg/kg, route intravenous; details: plasma
[40] = target: Protein kinase C beta type (Homo sapiens) (UniProt P05771); experiment: Inhibition of PKCb2 at 2 uM
Mus musculus [41] = experiment: Antiarthritic activity in complete Freund's adjuvant-immunized DBA/1J mouse assessed as inhibition of type 2 collagen-induced bone and cartilage erosion at 5 mg/kg, po bid measured on day 20; type: functional; details: 480 h
[42] = target: Tyrosine-protein kinase receptor UFO (Homo sapiens) (UniProt P30530); details: 2 uM
Description: Inhibition of Axl at 2 uM

[43] = Volume of distribution at steady state in beagle dog at 13.8 mg/kg, iv; type: ADME, organism-based, Canis lupus familiaris; parameters: dose 13.8 mg/kg, route intravenous; details: in vivo, read-out: Vdss
[44] = Induction of human cytochrome P450; type: ADME
[45] = Clearance in BALB/c mouse at 2 mg/kg, iv; type: ADME, organism-based; parameters: dose 2 mg/kg, route intravenous; details: in vivo
[46] = target: Mitogen-activated protein kinase 11 (Homo sapiens) (UniProt Q15759); details: 100 uM
Cytochrome P450 2C19 = Cytochrome P450 2C19 (Homo sapiens, UniProt P33261); experiment: Inhibition of human CYP2C19; type: ADME
[47] = target: Dual specificity mitogen-activated protein kinase kinase 2 (Homo sapiens) (UniProt P36507); experiment: Inhibition of MEK2 at 2 uM
[48] = Clearance in beagle dog at 13.8 mg/kg, iv; type: ADME, organism-based, Canis lupus familiaris; parameters: dose 13.8 mg/kg, route intravenous; details: in vivo
[49] = target: Dual specificity mitogen-activated protein kinase kinase 6 (Homo sapiens) (UniProt P52564); experiment: Inhibition of MKK6
[50] = target: Mitogen-activated protein kinase 1 (Homo sapiens) (UniProt P28482); experiment: Inhibition of ERK2 using ATGPLSPGPFGRR as substrate at 100 uM by spectrophotometric enzyme-coupled assay
[51] = target: Tyrosine-protein kinase Lyn (Homo sapiens) (UniProt P07948); details: 2 uM
Description: Inhibition of Lyn at 2 uM

Tyrosine-protein kinase Fes/Fps (Homo sapiens), sequence (P07332 whole entry): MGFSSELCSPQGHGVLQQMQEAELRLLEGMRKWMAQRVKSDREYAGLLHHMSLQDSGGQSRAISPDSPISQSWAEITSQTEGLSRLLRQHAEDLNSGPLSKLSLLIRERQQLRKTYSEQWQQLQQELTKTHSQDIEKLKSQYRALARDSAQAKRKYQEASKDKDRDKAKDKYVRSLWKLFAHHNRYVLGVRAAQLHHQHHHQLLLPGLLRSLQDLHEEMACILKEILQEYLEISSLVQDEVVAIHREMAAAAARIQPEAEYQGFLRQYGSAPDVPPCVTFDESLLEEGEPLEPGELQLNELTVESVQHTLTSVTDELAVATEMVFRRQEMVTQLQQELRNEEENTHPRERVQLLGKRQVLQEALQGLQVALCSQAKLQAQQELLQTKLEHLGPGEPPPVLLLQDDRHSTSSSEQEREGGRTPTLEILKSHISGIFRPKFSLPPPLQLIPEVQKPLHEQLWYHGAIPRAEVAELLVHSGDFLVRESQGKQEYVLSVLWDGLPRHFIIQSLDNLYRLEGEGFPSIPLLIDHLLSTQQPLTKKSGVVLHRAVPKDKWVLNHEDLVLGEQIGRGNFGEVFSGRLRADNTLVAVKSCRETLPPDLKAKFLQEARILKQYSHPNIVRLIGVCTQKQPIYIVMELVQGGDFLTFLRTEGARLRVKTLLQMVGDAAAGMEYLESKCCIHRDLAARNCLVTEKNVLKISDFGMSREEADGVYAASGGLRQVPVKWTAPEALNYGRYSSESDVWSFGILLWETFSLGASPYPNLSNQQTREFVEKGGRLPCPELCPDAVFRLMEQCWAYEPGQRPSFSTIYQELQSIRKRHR
Tyrosine-protein kinase receptor UFO (Homo sapiens), sequence (P30530 whole entry): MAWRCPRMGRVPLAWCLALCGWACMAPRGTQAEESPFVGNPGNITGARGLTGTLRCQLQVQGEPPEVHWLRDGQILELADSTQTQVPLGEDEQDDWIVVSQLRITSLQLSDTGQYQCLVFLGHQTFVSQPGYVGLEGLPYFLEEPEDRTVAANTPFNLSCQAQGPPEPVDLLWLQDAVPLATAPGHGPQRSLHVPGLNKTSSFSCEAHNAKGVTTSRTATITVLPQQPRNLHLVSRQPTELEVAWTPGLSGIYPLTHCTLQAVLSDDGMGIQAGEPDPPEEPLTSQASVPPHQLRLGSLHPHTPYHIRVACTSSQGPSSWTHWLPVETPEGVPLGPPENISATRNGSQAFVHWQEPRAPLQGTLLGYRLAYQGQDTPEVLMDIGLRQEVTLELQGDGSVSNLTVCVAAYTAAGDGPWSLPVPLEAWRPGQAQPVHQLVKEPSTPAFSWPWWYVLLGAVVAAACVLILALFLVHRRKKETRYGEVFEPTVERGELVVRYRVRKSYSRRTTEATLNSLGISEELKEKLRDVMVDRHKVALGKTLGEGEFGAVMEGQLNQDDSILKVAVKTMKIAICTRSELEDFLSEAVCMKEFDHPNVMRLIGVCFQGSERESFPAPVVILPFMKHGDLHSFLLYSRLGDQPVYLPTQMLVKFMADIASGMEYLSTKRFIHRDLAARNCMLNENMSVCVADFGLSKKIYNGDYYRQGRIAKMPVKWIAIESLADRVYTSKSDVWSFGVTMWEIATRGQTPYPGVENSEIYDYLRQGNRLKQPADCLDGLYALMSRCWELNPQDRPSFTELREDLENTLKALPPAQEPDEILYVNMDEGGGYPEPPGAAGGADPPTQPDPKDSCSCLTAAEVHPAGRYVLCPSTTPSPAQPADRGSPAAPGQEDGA
Serine/threonine-protein kinase Chk1 (Homo sapiens), sequence (O14757 whole entry): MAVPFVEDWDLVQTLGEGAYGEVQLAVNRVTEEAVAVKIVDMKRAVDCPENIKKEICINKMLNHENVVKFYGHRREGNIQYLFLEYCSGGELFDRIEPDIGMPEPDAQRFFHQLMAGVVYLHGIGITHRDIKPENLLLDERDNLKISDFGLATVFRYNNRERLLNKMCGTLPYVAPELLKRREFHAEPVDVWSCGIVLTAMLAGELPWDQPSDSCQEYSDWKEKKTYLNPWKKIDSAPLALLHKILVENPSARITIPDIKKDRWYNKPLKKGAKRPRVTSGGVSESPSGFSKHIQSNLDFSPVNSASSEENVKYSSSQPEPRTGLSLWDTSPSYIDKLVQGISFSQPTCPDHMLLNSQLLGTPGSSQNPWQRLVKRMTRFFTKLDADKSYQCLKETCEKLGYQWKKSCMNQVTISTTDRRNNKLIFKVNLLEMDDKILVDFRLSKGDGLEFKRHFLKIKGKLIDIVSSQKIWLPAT
Inhibitor of nuclear factor kappa-B kinase subunit alpha (Homo sapiens), sequence (O15111 whole entry): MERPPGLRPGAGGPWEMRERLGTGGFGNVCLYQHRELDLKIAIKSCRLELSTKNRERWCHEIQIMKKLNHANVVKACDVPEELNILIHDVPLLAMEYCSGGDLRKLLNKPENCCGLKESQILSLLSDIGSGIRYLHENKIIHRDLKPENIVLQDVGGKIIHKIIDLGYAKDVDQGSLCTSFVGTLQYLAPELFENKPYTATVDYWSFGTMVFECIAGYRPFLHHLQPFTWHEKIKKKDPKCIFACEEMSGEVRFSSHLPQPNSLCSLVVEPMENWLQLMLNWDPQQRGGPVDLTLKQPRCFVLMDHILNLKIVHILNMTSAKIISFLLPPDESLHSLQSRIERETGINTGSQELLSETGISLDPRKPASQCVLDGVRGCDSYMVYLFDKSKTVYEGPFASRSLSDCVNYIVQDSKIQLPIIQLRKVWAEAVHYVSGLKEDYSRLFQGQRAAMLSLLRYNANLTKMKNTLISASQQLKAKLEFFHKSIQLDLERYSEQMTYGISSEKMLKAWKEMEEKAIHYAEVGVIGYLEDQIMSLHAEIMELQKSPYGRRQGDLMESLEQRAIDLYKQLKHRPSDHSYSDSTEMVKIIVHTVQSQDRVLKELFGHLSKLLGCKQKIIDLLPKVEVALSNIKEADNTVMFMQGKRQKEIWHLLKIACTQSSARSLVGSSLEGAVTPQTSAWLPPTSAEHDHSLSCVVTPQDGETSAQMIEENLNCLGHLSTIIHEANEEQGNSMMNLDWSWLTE
Dual specificity mitogen-activated protein kinase kinase 1 (Homo sapiens), sequence (Q02750 whole entry): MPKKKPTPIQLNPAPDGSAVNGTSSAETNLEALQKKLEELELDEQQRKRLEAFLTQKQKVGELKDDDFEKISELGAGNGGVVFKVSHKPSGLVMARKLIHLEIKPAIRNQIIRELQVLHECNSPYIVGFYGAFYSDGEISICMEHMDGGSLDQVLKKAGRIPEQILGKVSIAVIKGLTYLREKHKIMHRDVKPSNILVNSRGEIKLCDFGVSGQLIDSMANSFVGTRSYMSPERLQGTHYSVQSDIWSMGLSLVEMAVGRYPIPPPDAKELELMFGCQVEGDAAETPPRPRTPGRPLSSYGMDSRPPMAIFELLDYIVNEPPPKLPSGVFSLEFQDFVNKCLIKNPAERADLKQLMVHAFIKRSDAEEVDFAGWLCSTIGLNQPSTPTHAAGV
Dual specificity mitogen-activated protein kinase kinase 6 (Homo sapiens), sequence (P52564 whole entry): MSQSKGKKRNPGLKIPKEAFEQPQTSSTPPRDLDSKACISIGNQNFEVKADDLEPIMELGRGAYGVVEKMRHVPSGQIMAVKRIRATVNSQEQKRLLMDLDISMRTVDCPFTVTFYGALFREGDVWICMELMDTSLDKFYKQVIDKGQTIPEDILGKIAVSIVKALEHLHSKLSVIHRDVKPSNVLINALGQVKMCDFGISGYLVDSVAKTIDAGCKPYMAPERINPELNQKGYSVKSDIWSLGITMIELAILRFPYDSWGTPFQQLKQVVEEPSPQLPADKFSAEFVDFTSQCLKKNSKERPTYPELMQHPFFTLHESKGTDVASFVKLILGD
Inhibitor of nuclear factor kappa-B kinase subunit beta (Homo sapiens), sequence (O14920 whole entry): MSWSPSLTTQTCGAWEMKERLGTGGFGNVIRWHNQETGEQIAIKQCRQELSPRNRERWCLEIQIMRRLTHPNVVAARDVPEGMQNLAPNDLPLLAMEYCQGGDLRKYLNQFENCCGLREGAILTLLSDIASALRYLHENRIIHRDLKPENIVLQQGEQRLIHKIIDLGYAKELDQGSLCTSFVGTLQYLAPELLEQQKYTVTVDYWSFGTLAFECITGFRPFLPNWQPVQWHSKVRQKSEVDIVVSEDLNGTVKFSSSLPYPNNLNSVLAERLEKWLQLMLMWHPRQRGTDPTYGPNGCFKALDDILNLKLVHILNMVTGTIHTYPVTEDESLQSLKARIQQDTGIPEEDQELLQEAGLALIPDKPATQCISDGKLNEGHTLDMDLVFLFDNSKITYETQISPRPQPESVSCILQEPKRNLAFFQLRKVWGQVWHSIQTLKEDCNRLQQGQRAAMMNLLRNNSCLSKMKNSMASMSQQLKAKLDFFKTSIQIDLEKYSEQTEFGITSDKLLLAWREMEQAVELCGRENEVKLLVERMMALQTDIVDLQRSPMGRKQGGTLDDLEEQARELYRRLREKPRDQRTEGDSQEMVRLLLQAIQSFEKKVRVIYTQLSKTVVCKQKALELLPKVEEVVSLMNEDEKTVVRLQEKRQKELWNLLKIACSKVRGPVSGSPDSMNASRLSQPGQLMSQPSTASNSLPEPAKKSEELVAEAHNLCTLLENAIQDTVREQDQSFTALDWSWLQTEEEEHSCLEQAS
Mitogen-activated protein kinase 11 (Homo sapiens), sequence (Q15759 whole entry): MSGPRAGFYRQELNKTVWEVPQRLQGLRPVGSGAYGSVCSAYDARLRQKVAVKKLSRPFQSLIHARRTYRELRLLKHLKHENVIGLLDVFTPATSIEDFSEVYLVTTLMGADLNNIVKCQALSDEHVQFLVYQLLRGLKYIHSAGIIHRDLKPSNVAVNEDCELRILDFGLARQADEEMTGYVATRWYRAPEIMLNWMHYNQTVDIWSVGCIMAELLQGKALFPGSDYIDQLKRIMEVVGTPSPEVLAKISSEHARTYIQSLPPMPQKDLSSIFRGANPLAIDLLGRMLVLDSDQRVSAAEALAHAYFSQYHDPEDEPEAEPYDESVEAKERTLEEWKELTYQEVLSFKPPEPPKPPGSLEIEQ

## O=c1ncn2nc(Sc3ccc(F)cc3F)ccc2c1-c1c(Cl)cccc1Cl [NEFLAMAPIMOD]
[1]
  inhibition: 5%
[2]
  fraction unbound: 0.02
[3]
  inhibition: 20%
[4]
  AUC: 1540 ng·h/mL
[5]
  inhibition: 0%
Cytochrome P450 1A2
  IC50: > 40 µM
[6]
  inhibition: 0%
Cytochrome P450 2C9
  IC50: > 40 µM
[7]
  inhibition: 0%
[8]
  inhibition: 10%
[9]
  inhibition: 13%
[10]
  inhibition: 20%
[11]
  inhibition: 0%
[12]
  half-life: 2.6 h
[13]
  AUC: 27000 ng·h/mL
[14]
  inhibition: 0%
[15]
  inhibition: 0%
[16]
  half-life: 1.5 h
[17]
  inhibition: 0%
Mus musculus [18]
  inhibition in vivo at 5 mg/kg: 31%
[19]
  inhibition: 0%
[20]
  inhibition: 0%
[21]
  half-life: 1.9 h
Canis familiaris [22]
  AUC: 6120 ng·h/mL
[23]
  half-life: 4.5 h
[24]
  inhibition: 0%
[25]
  Cmax: 1370 ng/mL
Mus musculus [26]
  inhibition in vivo at […]: 27%
Canis familiaris [27]
  F: 69%
[28]
  inhibition: 7%
[29]
  bioavailability: 87%
[30]
  inhibition: 0%
[31]
  fraction unbound: 0.08
[32]
  half-life: 4.5 h
[33]
  inhibition: 0%
[34]
  clearance: 63 mL/min/kg
[35]
  bioavailability: 56%
[36]
  AUC: 6300 ng·h/mL
[37]
  inhibition: 5%
[38]
  inhibition: 1%
[39]
  AUC: 1260 ng·h/mL
[40]
  inhibition: 5%
Mus musculus [41]
  inhibition in vivo at 5 mg/kg: 32%
[42]
  inhibition: 0%
[43]
  Vd: 2.3 L/kg
[44]
  Activity: Not Active
[45]
  clearance: 21 mL/min/kg
[46]
  inhibition: inactive
Cytochrome P450 2C19
  IC50: > 40 µM
[47]
  inhibition: 14%
[48]
  clearance: 39 mL/min/kg
[49]
  inhibition: Active
[50]
  inhibition: inactive
[51]
  inhibition: 0%
